Several values for one entry are separate records, joined by “and”; a condition that tells them apart may be missing. Equal entries are not always repeated.
Experiments:
[1] = tested on: bleomycin induced pulmonary fibrosis; assay: Bleomycin induced pulmonary fibrosis in mice, nebulized treatment: body weight, weight of whole lung, survival; assay type: in vivo; conditions: for Predicted (LS) mean diff., % Change Body Weight, Group 2 Bleo/Veh vs. BETi1 group: Two Way ANOVA
Protocol: Bleomycin, a […], which acts inter alia by induction of DNA strand breaks.
The Bleomycin induced pulmonary fibrosis in a murine model is used to assess anti-fibrotic and/or anti-inflammatory properties of BETi1 formulations at three concentrations. Fifty C57BL/6 male mice aged 6 to 7 weeks and weighing between 25-30 grams are randomized into five treatment groups (10 mice each): (a) bleomycin induced mice treated with BETi1 at three concentrations (0.06 mg/mL, 0.6 mg/mL and 3 mg/mL); (b) bleomycin induced mice treated with vehicle (control for active) and (c) uninduced mice treated with vehicle (sham) (control for disease).
To generate the morphological and functional aspects of PF, 50 uL bleomycin sulfate in saline per mouse is intranasally dosed on Day 0 (other than for group 1 sham receiving saline). The bleomycin IU conversion to enzyme units (U) is approximately 2 U/mg. For delivery of 4 U/kg in 50 μL, a solution of 2 U/ml (for 25 g mouse) is prepared in 0.9% NaCl.
5 ml of BETi1 solutions at 3 doses, or vehicle and bleomycin concomitantly are delivered once daily for 21 days with a nebulizer based aerosol delivery system (eFlow® rapid Nebuliser System) by inhalation for a period which allows the solutions to be nebulized and up to 2 hours per day. A sham group receives vehicle only. Body weights are recorded on days 1, 7, 14, and 21. Mortality and clinical observations are recorded daily.
On day 21, mice are euthanized by cervical dislocation and the whole lung is dissected and weighed. The chest is wet with alcohol and large scissors are used to open the ribcage. The lungs are removed with fine scissors and forceps, rinsed with PBS and patted dry on gauze.
Investigation of the anti-fibrotic properties of BETi1 composition against TGF-β mediated fibrosis was undertaken in a bleomycin induced murine model mimicking IPF in accordance with the protocol set out in Experimental Method R.

[2] = tested on: hydroxyproline; assay: Bleomycin mice: hydroxyproline content of lung tissue (colorimetric assay); assay type: in vivo, C57BL/6 male mice; conditions: for Mean Diff., Hydroxyproline Level of Lung, Group 2 Bleo/Veh vs. BETi1 group: One Way ANOVA, Dunnett's; for Mean Diff., Hydroxyproline Level of Lung, Group 2 Bleo/Veh vs. BETi1 group / Mean 2 (group mean), Hydroxyproline Level of Lung: in µg/mg
Protocol: The left lobe of lung tissue is collected, and snap frozen for hydroxyproline levels analysis. Hydroxyproline (4-hydroxyproline, Hyp) is a common nonproteinogenic amino acid. Hydroxyproline in tissue hydrolysates is an indirect measure of the amount of collagen present. Hydroxyproline content of lung tissue is measured by colorimetric assay.

[3] = Group 5 Bleo/BETi1 3 mg/mL, group mean
[4] = Group 5 Bleo/BETi1 3 mg/mL, individual animals

Cn1cc(-c2cccc(O)c2Oc2ccccc2)c2cc[nH]c2c1=O [BETi1]
Mean Diff., Weight of Whole lung, Group 2 Bleo/Veh vs. BETi1 group ([1]; Group 5 Bleo/BETi1 3 mg/mL, One Way ANOVA, Dunnett's): 0.001901
% change in Body Weight Week 1 Compared to Baseline, mean [1, 3]: −19.36%
% change in Body Weight week 2 Compared to Baseline, mean [1, 3]: −20.64%
% change in Body Weight week 3 Compared to Baseline, Mean [1, 3]: −16.74%
% change in Body Weight Week 1 Compared to Baseline [1, 4]: −26.87% and −23.22% and −36.71% and −15.25% and −13.81% and −12.78% and −17.30% and −34.80% and −28.32% and −27.55% and −24.87% and −34.38% and −26.99% and −11.63% and −10.16% and −15.64% and −21.86%
% change in Body Weight week 2 Compared to Baseline [1, 4]: −11.45% and −36.97% and −40.10% and −20.18% and 1.43% and −7.05% and −22.16% and −38.24% and −34.07% and −20.81% and −42.92% and −8.37% and −1.07% and −7.11% and −20.47%
% change in Body Weight week 3 Compared to Baseline [1, 4]: −5.73% and −37.44% and −21.52% and 1.90% and −7.05% and −24.32% and −46.08% and −37.17% and −17.26% and −3.26% and 2.67% and −4.27% and −18.14%
Mean 2 (group mean), % Change Body Weight ([1]; Week 1, Group 3 Bleo/BETi1 0.06 mg/mL): −25.27%
Mean Diff., % Change Body Weight, Group 2 Bleo/Veh vs. BETi1 group ([1]; Week 1, Group 3 Bleo/BETi1 0.06 mg/mL, One Way ANOVA, Dunnett's): 3.162%
Predicted (LS) mean diff., % Change Body Weight, Group 2 Bleo/Veh vs. BETi1 group ([1]; Week 1, Group 3 Bleo/BETi1 0.06 mg/mL, Dunnett's): −0.2812%
Mean 2 (group mean), % Change Body Weight ([1]; Week 1, Group 4 Bleo/BETi1 0.6 mg/mL): −20.16%
Mean Diff., % Change Body Weight, Group 2 Bleo/Veh vs. BETi1 group ([1]; Week 1, Group 4 Bleo/BETi1 0.6 mg/mL, One Way ANOVA, Dunnett's): −1.950%
Predicted (LS) mean diff., % Change Body Weight, Group 2 Bleo/Veh vs. BETi1 group ([1]; Week 1, Group 4 Bleo/BETi1 0.6 mg/mL, Dunnett's): 0.1375%
Mean 2 (group mean), % Change Body Weight ([1]; Week 1, Group 5 Bleo/BETi1 3 mg/mL): −22.48%
Mean Diff., % Change Body Weight, Group 2 Bleo/Veh vs. BETi1 group ([1]; Week 1, Group 5 Bleo/BETi1 3 mg/mL, One Way ANOVA, Dunnett's): 0.3723%
Predicted (LS) mean diff., % Change Body Weight, Group 2 Bleo/Veh vs. BETi1 group ([1]; Week 1, Group 5 Bleo/BETi1 3 mg/mL, Dunnett's): −0.2048%
Mean 2 (group mean), % Change Body Weight ([1]; Week 2, Group 3 Bleo/BETi1 0.06 mg/mL): −19.98%
Mean Diff., % Change Body Weight, Group 2 Bleo/Veh vs. BETi1 group ([1]; Week 2, Group 3 Bleo/BETi1 0.06 mg/mL, One Way ANOVA, Dunnett's): 1.135%
Predicted (LS) mean diff., % Change Body Weight, Group 2 Bleo/Veh vs. BETi1 group ([1]; Week 2, Group 3 Bleo/BETi1 0.06 mg/mL, Dunnett's): 0.3375%
Mean 2 (group mean), % Change Body Weight ([1]; Week 2, Group 4 Bleo/BETi1 0.6 mg/mL): −17.12%
Mean Diff., % Change Body Weight, Group 2 Bleo/Veh vs. BETi1 group ([1]; Week 2, Group 4 Bleo/BETi1 0.6 mg/mL, One Way ANOVA, Dunnett's): −1.732%
Predicted (LS) mean diff., % Change Body Weight, Group 2 Bleo/Veh vs. BETi1 group ([1]; Week 2, Group 4 Bleo/BETi1 0.6 mg/mL, Dunnett's): −0.3438%
Mean 2 (group mean), % Change Body Weight ([1]; Week 2, Group 5 Bleo/BETi1 3 mg/mL): −20.64%
Mean Diff., % Change Body Weight, Group 2 Bleo/Veh vs. BETi1 group ([1]; Week 2, Group 5 Bleo/BETi1 3 mg/mL, One Way ANOVA, Dunnett's): 1.788%
Predicted (LS) mean diff., % Change Body Weight, Group 2 Bleo/Veh vs. BETi1 group ([1]; Week 2, Group 5 Bleo/BETi1 3 mg/mL, Dunnett's): −0.05257%
Mean 2 (group mean), % Change Body Weight ([1]; Week 3, Group 3 Bleo/BETi1 0.06 mg/mL): −8.830%
Mean Diff., % Change Body Weight, Group 2 Bleo/Veh vs. BETi1 group ([1]; Week 3, Group 3 Bleo/BETi1 0.06 mg/mL, One Way ANOVA, Dunnett's): −4.313%
Predicted (LS) mean diff., % Change Body Weight, Group 2 Bleo/Veh vs. BETi1 group ([1]; Week 3, Group 3 Bleo/BETi1 0.06 mg/mL, Dunnett's): −2.409%
Mean 2 (group mean), % Change Body Weight ([1]; Week 3, Group 4 Bleo/BETi1 0.6 mg/mL): −13.58%
Mean Diff., % Change Body Weight, Group 2 Bleo/Veh vs. BETi1 group ([1]; Week 3, Group 4 Bleo/BETi1 0.6 mg/mL, One Way ANOVA, Dunnett's): 0.4395%
Predicted (LS) mean diff., % Change Body Weight, Group 2 Bleo/Veh vs. BETi1 group ([1]; Week 3, Group 4 Bleo/BETi1 0.6 mg/mL, Dunnett's): −0.1629%
Mean 2 (group mean), % Change Body Weight ([1]; Week 3, Group 5 Bleo/BETi1 3 mg/mL): −16.74%
Mean Diff., % Change Body Weight, Group 2 Bleo/Veh vs. BETi1 group ([1]; Week 3, Group 5 Bleo/BETi1 3 mg/mL, One Way ANOVA, Dunnett's): 3.600%
Predicted (LS) mean diff., % Change Body Weight, Group 2 Bleo/Veh vs. BETi1 group ([1]; Week 3, Group 5 Bleo/BETi1 3 mg/mL, Dunnett's): 0.6601%
reduction in hydroxyproline levels ([2]; 3 mg/mL (group 5)): statistically significant compared to treatment with vehicle
hydroxyproline levels ([2]; 0.06, 0.6 and 3 mg/mL, vs bleomycin and vehicle): demonstrated a decrease in hydroxyproline levels
Hydroxyproline Level of Lung, Mean ([2]; Group 3 Bleo/BETi1 0.06 mg/mL): 0.2248 μg/mg tissue
Hydroxyproline Level of Lung, individual animals ([2]; Group 3 Bleo/BETi1 0.06 mg/mL): 0.1154 μg/mg tissue and 0.2842 μg/mg tissue and 0.3149 μg/mg tissue and 0.2968 μg/mg tissue and 0.3372 μg/mg tissue and 0.1322 μg/mg tissue and 0.1196 μg/mg tissue and 0.1977 μg/mg tissue
Mean Diff., Hydroxyproline Level of Lung, Group 2 Bleo/Veh vs. BETi1 group ([2]; Group 3 Bleo/BETi1 0.06 mg/mL): 0.08927
Mean 2 (group mean), Hydroxyproline Level of Lung ([2]; Group 3 Bleo/BETi1 0.06 mg/mL): 0.2248
Hydroxyproline Level of Lung, Mean ([2]; Group 4 Bleo/BETi1 0.6 mg/mL): 0.2535 μg/mg tissue
Hydroxyproline Level of Lung, individual animals ([2]; Group 4 Bleo/BETi1 0.6 mg/mL): 0.1377 μg/mg tissue and 0.3400 μg/mg tissue and 0.2954 μg/mg tissue and 0.1503 μg/mg tissue and 0.2745 μg/mg tissue and 0.3191 μg/mg tissue and 0.2242 μg/mg tissue and 0.2703 μg/mg tissue and 0.1029 μg/mg tissue and 0.2298 μg/mg tissue and 0.3121 μg/mg tissue and 0.2982 μg/mg tissue and 0.3414 μg/mg tissue
Mean Diff., Hydroxyproline Level of Lung, Group 2 Bleo/Veh vs. BETi1 group ([2]; Group 4 Bleo/BETi1 0.6 mg/mL): 0.0605
Mean 2 (group mean), Hydroxyproline Level of Lung ([2]; Group 4 Bleo/BETi1 0.6 mg/mL): 0.2535
Hydroxyproline Level of Lung, Mean ([2]; Group 5 Bleo/BETi1 3 mg/mL): 0.2003 μg/mg tissue
Hydroxyproline Level of Lung, individual animals ([2]; Group 5 Bleo/BETi1 3 mg/mL): 0.1935 μg/mg tissue and 0.0596 μg/mg tissue and 0.2200 μg/mg tissue and 0.2800 μg/mg tissue and 0.2731 μg/mg tissue and 0.1308 μg/mg tissue and 0.2466 μg/mg tissue and 0.1112 μg/mg tissue and 0.3107 μg/mg tissue and 0.2382 μg/mg tissue and 0.3024 μg/mg tissue and 0.1349 μg/mg tissue and 0.1029 μg/mg tissue
Mean Diff., Hydroxyproline Level of Lung, Group 2 Bleo/Veh vs. BETi1 group ([2]; Group 5 Bleo/BETi1 3 mg/mL): 0.1137
Mean 2 (group mean), Hydroxyproline Level of Lung ([2]; Group 5 Bleo/BETi1 3 mg/mL): 0.2003
